Experimental data from publication PMC9412875, “^64Cu-DOTHA2-PSMA, a Novel PSMA PET Radiotracer for Prostate Cancer with a Long Imaging Time Window” (Pharmaceuticals, 2022).
Entries after “also recorded” stand apart in the source; their conditions may differ.

Tests used:
[1] = Lipophilicity (log D), octanol/PBS partition; type: physicochemical; conditions: octanol / PBS pH 7.4, triplicate
Method: For log D measurements, 8 MBq of ^64Cu-DOTHA2-PSMA was added to a pre-saturated mixture of phosphate-buffered saline pH 7.4 (500 µL) and octanol (500 µL). Samples were shaken for 30 min at room temperature, centrifuged at 7000 rpm for 5 min, and 100 µL of each phase was counted using a Packard Cobra gamma counter. Experiments were performed in triplicate and the value was presented as log Dmean ± SD, where D was calculated as D = (Average of CPM in octanol / CPM in PBS).

[2] = In vivo stability (blood, urine, liver) after injection; set-up: species or system balb/c mice
Method: For metabolite analysis, three balb/c mice were injected with a bolus of 32 MBq of ^64Cu-DOTHA2-PSMA in 0.3 mL saline by tail vein (real IA: 26.4–39.0 MBq). Blood was collected at 1 h p.i. (0.01–0.1 mL) in heparin-coated tubes and then centrifuged at 10,000 rpm for 10 min. Subsequently, the pellet and supernatant were separated, and the relative activity was determined. Radio-TLC was performed to assess the stability of the radiolabeled compound in the blood and in plasma. Two balb/c mice were injected with 45 MBq (real IA: 44.7–45.5 MBq). Urine was collected at 1 h p.i. and analyzed by UPLC. Two balb/c mice were injected with 59 MBq and then euthanized and dissected at 2 h p.i. to harvest the liver (real IA: 58.9–59.3 MBq). The livers were promptly washed and put on ice. They were homogenized with an ice-cold piston with 1 mL of water, extracted, centrifuged (14,000 rpm; 3 min), and mixed with 1 mL of acetonitrile before 4 further cycles of centrifugation and the collection of supernatants. All the pellets were mixed with 1 mL of 10% TFA and centrifuged, and the final supernatant was analyzed by Radio-TLC. The activity was measured in all the supernatants.

LNCaP cells [3] = assay: Cellular uptake and internalization assays; type: cell-based, human; conditions: for cellular uptake: n = 9
Method: (§1) Here, 12-well polylysine-coated Cellbind plates were seeded with 150 × 10^3 LNCaP cells with 1.75 mL of cell media. At 70–100% confluence (3 days of growth), the cell medium was changed and 37 kBq of ^64Cu-DOTHA2-PSMA in 1 mL of cell medium was added to each well of group 1 and 160 kBq to each of group 2.
Uptake and internalization assay cells were incubated for 15, 30, 45, 60 min, 2 h, 3 h, and 4 h in group 1 or 4 h, 8 h, 12 h, 24 h, 36 h, and 48 h in group 2 (3 wells per time point in all groups). Repetition of the 4 h time point was used to ensure reproducibility. After incubation, the medium was removed, and cells were washed with 1 mL of cold PBS. For the uptake assays, cells were directly treated with 1 mL of trypsin to be collected and their activity was assayed (HIDEX AMG Gamma Counter 425-601). For internalization assays, cells were incubated with 1 mL of acidic glycine (50 mM, pH = 2,8) for 5 min to remove membrane-bound ^64Cu-DOTHA2-PSMA, washed with 3 mL of cold PBS, and collected using 1 mL of trypsin to be measured in the gamma-counter. Uptake and internalization results were expressed as the percentage of activity injected in the well (IA) in functions of time, normalized to 10^6 cells.
(§2) All the assays were performed at least 3 times, each with different ^64Cu-DOTHA2-PSMA production and cell passage. Cells were counted in 3 wells for each protocol (uptake, internalization, and efflux) on day 1 and day 3 of each experiment and an average for cells numbers at day 2.

LNCaP cells [4] = assay: Cellular efflux assay; type: cell-based, human
Method: as §1
For efflux assays, after adding ^64Cu-DOTHA2-PSMA, cells were incubated for 60 min for the time points 15 min to 4 h (group 1) and incubated for 4 h for the time points 4 h to 48 h (group 2). After incubation, the medium was removed, cells were washed with 1 mL of cold PBS, 1 mL of cell media was added and, similarly to uptake and internalization, cells were again incubated in nonradioactive media for 0, 15, 30, 45, 60 min, 2 h, 4 h (group 1) and 4 h, 8 h, 24 h, 32 h or 48 h (group 2) (3 wells per time point). After respective incubation times per well, the medium was removed, and cells were washed with 1 mL of cold PBS, then removed from the well with 1 mL of trypsin to measure the residual radioactivity by gamma counter. The results of residual activity were expressed as percentage of the 1 h (Group 1) or 4 h (Group 2) uptake activity (0 min of efflux time-point) as a function of time for 10^6 cells.
as §2

[5] = Balb/c mice biodistribution; type: in vivo
Method: ^64Cu-DOTHA2-PSMA biodistribution was assessed in balb/c mice (n = 30) by harvesting blood and organs at 1 h, 2 h, 4 h, 24 h, and 48 h p.i. to measure tissue radioactivity and weight. Results were reported as the %IA/g of tissue and compared with the radiotracer used for clinical imaging in our facility, ^68Ga-PSMA-617.
Balb/c mice (n = 30) were injected with a bolus of ^64Cu-DOTHA2-PSMA by the tail vein (in 0.3 mL of saline: 3 MBq for 1 h, 2 h, and 4 h p.i., 7.5 MBq for 24 h p.i. and 21 MBq for 48 h p.i.). Injected activity had to be increased for later time points to ensure reliable detection and reliability in organs with a low uptake, e.g., the brain. At all timepoints, blood was collected using a heparin-coated syringe by femoral vein puncture and mice were then euthanized and dissected. Harvested tissues were rinsed, blotted dry, and then weighted and counted in gamma counter. The results are reported as the %IA per gram of tissue. The biodistribution results were compared with the ^68Ga-PSMA-617 results obtained by our team at 1 h and 2 h p.i.

LNCaP cells [6] = assay: Cellular efflux assay; type: cell-based, human; conditions: 1h incubation, efflux time 3 h
[7] = in mice, 1 h p.i., after 10% TFA

CN([O-])C(=O)CN1CCN(CC(=O)NCC2CCC(C(=O)NC(Cc3ccc4ccccc4c3)C(=O)NCCCCC(NC(=O)NC(CCC(=O)O)C(=O)O)C(=O)O)CC2)CCN(CC(=O)N(C)[O-])CCN(CC(=O)N(C)O)CC1.[64Cu+2] (stereo not drawn) [^64Cu-DOTHA2-PSMA]
log D [1]: -0.96 ± 0.61 | 64Cu metabolite observed in the liver ([2]; balb/c mice, 2 h p.i., radio-TLC): 25% | tracer form found in urine ([2]; balb/c mice, urine 1 h p.i., UPLC): intact ^64Cu tracer was found in urine; also recorded: no metabolite was observed in urine | 64Cu and 64Cu-DOTHA2-PSMA Bound to Plasma Proteins ([2]; in mice, 1 h p.i.): 48% | 64Cu dissociation in combined supernatant and plasma proteins ([2]; in mice, 1 h p.i.): 4.58% | 64Cu released from Proteins [2, 7]: 1.98% | 64Cu-DOTHA2-PSMA Released from Proteins [2, 7]: 31% | 64Cu in the Supernatant ([2]; in mice, blood 1 h p.i., % of total plasma signal): 2.60% | free 64Cu in blood (peak in plasma supernatant, radio-TLC) ([2]; mice, 1 h p.i.): 5% | free 64Cu in the liver ([2]; mice, 2 h p.i., radio-TLC): no free ^64Cu was observed; also recorded: free ^64Cu was not seen in liver | cellular uptake (LNCaP cells [3]; 30 min): 22.0 ± 8.8 % IA/10^6 cells | internalization (LNCaP cells [3]; 2 h): 12.2 ± 6.7 % IA/10^6 cells | internalization (LNCaP cells [3]; 48 h): 34.1 ± 4.9 % IA/10^6 cells | cellular uptake (LNCaP cells [3]; 48 h): 34.5 ± 13.6 % IA/10^6 cells | Retained activity normalized to time 0 (LNCaP cells [4]; 1h incubation, efflux time 0.25 h): 100.93% | Retained activity normalized to time 0 (LNCaP cells [4]; 1h incubation, efflux time 0.50 h): 105.51% | Retained activity normalized to time 0 (LNCaP cells [4]; 1h incubation, efflux time 0.75 h): 94.38% | Retained activity normalized to time 0 (LNCaP cells [4]; 1h incubation, efflux time 1 h): 77.52% | Retained activity normalized to time 0 (LNCaP cells [4]; 1h incubation, efflux time 2 h): 80.95% | Retained activity normalized to time 0 (LNCaP cells [4]; 1h incubation, efflux time 4 h): 64.04% | Retained activity normalized to time 0 (LNCaP cells [4]; 4h incubation, efflux time 4 h): 66.23% | Retained activity normalized to time 0 (LNCaP cells [4]; 4h incubation, efflux time 8 h): 51.88% | Retained activity normalized to time 0 (LNCaP cells [4]; 4h incubation, efflux time 24 h): 35.10% | Retained activity normalized to time 0 (LNCaP cells [4]; 4h incubation, efflux time 32 h): 34.27% | Retained activity normalized to time 0 (LNCaP cells [4]; 4h incubation, efflux time 48 h): 48.61% | kidney uptake difference to 68Ga-PSMA-617 (lower) ([5]; 2 h p.i.): 23.3% | liver uptake ([5]; 2 h p.i.): 29.9 ± 5.0 % IA/g | liver uptake (peak) ([5]; 4 h p.i.): 30.2 ± 4.2 % IA/g | uptake in the kidneys (highest over time points) ([5]; up to 48 h p.i.): at most 15.8 ± 7.0 % IA/g | Retained activity normalized to time 0 (LNCaP cells [6]): 76.53%
